Test results taken from PubChem BioAssay AID248 (DTP/NCI, 2004).
Values joined by “and” are separate entries in the source; they are usually repeats but may differ in a detail not shown here. Equal entries are not always repeated. Inconclusive results and toxic doses are left out. Cut-off read from the data, not from the text of the source: active = T/C of 150% or more; inactive = T/C below 125%.

Tested on: L1210 leukemia ip in BDF1 mice, survival T/C
Test: NCI In Vivo Anticancer Drug Screen. Data for tumor model L1210 Leukemia (intraperitoneal) in B6D2F1 (BDF1) mice
Conditions: endpoint: mean survival time, higher = longer survival
Method in brief: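 In this screen, tumor-bearing mice given compound are compared to those given vehicle, and their survival values are reported as a treated-to-control quotient.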

[1] = dose: 100.0 mg/kg/injection, schedule: Q01DX009 (ip), vehicle: saline
[2] = dose: 100.0 mg/kg/injection, schedule: Q04DX003 (ip), vehicle: saline
[3] = dose: 200.0 mg/kg/injection, schedule: Q01DX009 (ip), vehicle: saline
[4] = dose: 200.0 mg/kg/injection, schedule: Q04DX003 (ip), vehicle: saline
[5] = dose: 400.0 mg/kg/injection, schedule: Q01DX009 (ip), vehicle: saline
[6] = dose: 400.0 mg/kg/injection, schedule: Q04DX003 (ip), vehicle: saline
[7] = dose: 100.0 mg/kg/injection, schedule: Q01DX009 (ip), vehicle: Klucel (hydroxypropylcellulose) (HPC)
[8] = dose: 200.0 mg/kg/injection, schedule: Q01DX009 (ip), vehicle: Klucel (hydroxypropylcellulose) (HPC)
[9] = dose: 400.0 mg/kg/injection, schedule: Q01DX009 (ip), vehicle: Klucel (hydroxypropylcellulose) (HPC)

Measured: T/C

COc1ccc(N=Cc2ccccc2O)cc1
inactive: dose: 100.0 mg/kg/injection, schedule: Q04DX003 (ip), vehicle: other 100 % of control | dose: 200.0 mg/kg/injection, schedule: Q04DX003 (ip), vehicle: other 96 % of control | dose: 400.0 mg/kg/injection, schedule: Q04DX003 (ip), vehicle: other 98 % of control

CCOC(=O)c1csc(C)n1
inactive: [1] 103 % of control | [2] 99 % of control | [3] 102 % of control | [4] 96 % of control | [5] 109 % of control | [6] 92 % of control

CCOC(=O)C(C#N)C(C)(C[N+](=O)[O-])C1CC1 (stereo not given)
inactive: dose: 0.78 mg/kg/injection, schedule: Q04DX003 (ip), vehicle: saline with Tween-80 96 % of control | dose: 1.56 mg/kg/injection, schedule: Q04DX003 (ip), vehicle: saline with Tween-80 101 % of control | dose: 3.13 mg/kg/injection, schedule: Q04DX003 (ip), vehicle: saline with Tween-80 97 % of control

O=[N+]([O-])c1ccc(N/N=C2\CCCCCC2c2ccccc2)c([N+](=O)[O-])c1 (stereo not given)
inactive: dose: 100.0 mg/kg/injection, schedule: Q04DX002 (ip), vehicle: Klucel (hydroxypropylcellulose) (HPC) 100 % of control | dose: 200.0 mg/kg/injection, schedule: Q04DX002 (ip), vehicle: Klucel (hydroxypropylcellulose) (HPC) 96 % of control | dose: 400.0 mg/kg/injection, schedule: Q04DX002 (ip), vehicle: Klucel (hydroxypropylcellulose) (HPC) 100 % of control

O=C(Nc1ccccc1C(=O)N/N=C/c1cccc(O)c1)c1ccccc1
inactive: [7] 103 % of control | [8] 89 % of control | [9] 97 % of control

O=C(OC(=O)C1CC1)C1CC1
inactive: dose: 12.5 mg/kg/injection, schedule: Q01DX009 (ip), vehicle: saline 96 % of control | dose: 25.0 mg/kg/injection, schedule: Q01DX009 (ip), vehicle: saline 92 % of control | dose: 25.0 mg/kg/injection, schedule: Q04DX003 (ip), vehicle: saline 90 % of control | dose: 50.0 mg/kg/injection, schedule: Q01DX009 (ip), vehicle: saline 96 % of control and 111 % of control | dose: 50.0 mg/kg/injection, schedule: Q04DX003 (ip), vehicle: saline 88 % of control | [2] 96 % of control and 101 % of control

NC(CS)=NCCc1nc2ccccc2[nH]1
inactive: dose: 100.0 mg/kg/injection, schedule: Q04DX002 (ip), vehicle: saline 107 % of control

O=C(Nc1cccc(C2=NCCN2)c1)c1cc(Cl)cc(C(=O)Nc2cccc(C3=NCCN3)c2)c1
inactive: dose: 7.0 mg/kg/injection, schedule: Q01DX Z (ip), vehicle: methylcellulose (MC) 92 % of control | dose: 11.0 mg/kg/injection, schedule: Q01DX Z (ip), vehicle: methylcellulose (MC) 100 % of control | dose: 16.0 mg/kg/injection, schedule: Q01DX Z (ip), vehicle: methylcellulose (MC) 87 % of control | dose: 25.0 mg/kg/injection, schedule: Q01DX Z (ip), vehicle: methylcellulose (MC) 97 % of control

CC[CH2][Pb]([CH2]CC)([CH2]CC)[O]C(C)=O
inactive: dose: 6.25 mg/kg/injection, schedule: Q04DX003 (ip), vehicle: Klucel (hydroxypropylcellulose) (HPC) 100 % of control | dose: 12.5 mg/kg/injection, schedule: Q04DX003 (ip), vehicle: Klucel (hydroxypropylcellulose) (HPC) 103 % of control | dose: 50.0 mg/kg/injection, schedule: Q01DX001 (ip), vehicle: saline 94 % of control | dose: 100.0 mg/kg/injection, schedule: Q01DX001 (ip), vehicle: saline 94 % of control

COC(=O)c1c2cccccc-2c(C(=O)OC)c1N
inactive: dose: 100.0 mg/kg/injection, schedule: Q04DX002 (ip), vehicle: saline with Tween-80 97 % of control | dose: 200.0 mg/kg/injection, schedule: Q04DX002 (ip), vehicle: saline with Tween-80 91 % of control | dose: 400.0 mg/kg/injection, schedule: Q04DX002 (ip), vehicle: saline with Tween-80 94 % of control

O=C(OC1CCCCC1)c1ccccc1-c1ccccc1C(=O)OC1CCCCC1
inactive: dose: 100.0 mg/kg/injection, schedule: Q01DX001 (ip), vehicle: other 91 % of control | dose: 200.0 mg/kg/injection, schedule: Q01DX001 (ip), vehicle: other 91 % of control | dose: 400.0 mg/kg/injection, schedule: Q01DX001 (ip), vehicle: other 86 % of control

CN(C)CC/C(=N\N=C(N)N)c1ccccc1
inactive: dose: 15.0 mg/kg/injection, schedule: Q01DX Z (ip), vehicle: methylcellulose (MC) 96 % of control | dose: 30.0 mg/kg/injection, schedule: Q01DX Z (ip), vehicle: methylcellulose (MC) 90 % of control | dose: 30.0 mg/kg/injection, schedule: Q01DX Z (oral), vehicle: methylcellulose (MC) 89 % of control | dose: 60.0 mg/kg/injection, schedule: Q01DX Z (ip), vehicle: methylcellulose (MC) 94 % of control | dose: 60.0 mg/kg/injection, schedule: Q01DX Z (oral), vehicle: methylcellulose (MC) 91 % of control

C(=C/c1ccccc1)/C[P+](c1ccccc1)(c1ccccc1)c1ccccc1
inactive: dose: 1.25 mg/kg/injection, schedule: Q01DX009 (ip), vehicle: saline with Tween-80 97 % of control | dose: 2.5 mg/kg/injection, schedule: Q01DX009 (ip), vehicle: saline with Tween-80 94 % of control | dose: 5.0 mg/kg/injection, schedule: Q01DX009 (ip), vehicle: saline with Tween-80 98 % of control | dose: 5.0 mg/kg/injection, schedule: Q04DX003 (ip), vehicle: saline with Tween-80 98 % of control | dose: 10.0 mg/kg/injection, schedule: Q04DX003 (ip), vehicle: saline with Tween-80 86 % of control | dose: 20.0 mg/kg/injection, schedule: Q04DX003 (ip), vehicle: saline with Tween-80 90 % of control

COc1ccc(CC(=O)NCCc2ccc3cc(OC)c(OC)cc3c2)cc1OC
inactive: [1] 90 % of control | [3] 86 % of control | [5] 88 % of control

CCOC(=O)C(O)(CC)CC
inactive: [1] 96 % of control | [2] 93 % of control | [3] 101 % of control | [4] 93 % of control | [5] 102 % of control | [6] 95 % of control

COc1ccc(C(=O)NC(=S)Nc2cccc(C)c2C)cc1
inactive: [7] 102 % of control | dose: 100.0 mg/kg/injection, schedule: Q04DX003 (ip), vehicle: Klucel (hydroxypropylcellulose) (HPC) 93 % of control | [8] 102 % of control | dose: 200.0 mg/kg/injection, schedule: Q04DX003 (ip), vehicle: Klucel (hydroxypropylcellulose) (HPC) 89 % of control | [9] 95 % of control | dose: 400.0 mg/kg/injection, schedule: Q04DX003 (ip), vehicle: Klucel (hydroxypropylcellulose) (HPC) 98 % of control

CC(=O)SCC(C)CCl (stereo not given)
inactive: [2] 102 % of control | [4] 107 % of control | [6] 104 % of control

COC(=O)c1nc(Cl)nc(S(C)(=O)=O)c1Cl
inactive: dose: 12.5 mg/kg/injection, schedule: Q01DX009 (ip), vehicle: Klucel (hydroxypropylcellulose) (HPC) 109 % of control | dose: 25.0 mg/kg/injection, schedule: Q01DX009 (ip), vehicle: Klucel (hydroxypropylcellulose) (HPC) 103 % of control | dose: 50.0 mg/kg/injection, schedule: Q01DX009 (ip), vehicle: Klucel (hydroxypropylcellulose) (HPC) 103 % of control and 89 % of control | [7] 92 % of control

O=[N+]([O-])c1ccccc1CC1c2ccccc2-c2ccccc21
inactive: [2] 96 % of control | [4] 94 % of control | [6] 93 % of control
